Experiments:
[1] = test system: total IgG2a, total and OVA-specific IgE; experiment: IgE and IgG2a levels in serum and BALF of sensitized and challenged mice (ELISA); type: in vivo, BABL/c mice; settings: 3~30 μmol/kg p.o.
Method: According to the schedule (Figure 1), ten female BABL/c mice in each group were sensitized by an intraperitoneal (i.p.) injection of 20 μg of OVA emulsified in 2.25 mg of an aluminum hydroxide gel, prepared from aluminum sulfate hexadecahydrate, in a total volume of 100 μl on days 0 and 14. On day 21, these mice were injected with (i.p.) 100 μl of a mixture of 1% OVA and Freund's complete adjuvant (1:1). Mice were challenged via the airway using 1% OVA in saline for 30 min on days 28, 29, and 30 by ultrasonic nebulization. After the last of OVA challenges, AHR was assessed on day 32 (48 h after 1% OVA provocation) in each group. Each group of mice was orally (p.o.) administered the vehicle (control) or 3~30 μmol/kg of HDME 2 h before and 6 and 24 h after OVA provocation. For comparison, sham-treated mice were challenged with saline instead of 1% OVA (non-challenged). […] AHR was assessed using two methods: (1) in anesthetized ventilated mice, AHR was assessed as previously described by measuring changes in the airway resistance (RL, cmH2O/ml/sec) and lung dynamic compliance (Cdyn, ml/cmH2O) after challenge with aerosolized methacholine (MCh, 0.78~25 mg/ml) using the FlexiVent system (SCIREQ, Montreal, Quebec, Canada). Anesthetized (urethane 600 mg/kg and chloralose 120 mg/kg, i.p.), tracheostomized (stainless-steel cannula, 18 G) mice were mechanically ventilated (at 150 breaths/min, with a tidal volume of 10 ml/kg, positive end-expiratory pressure of 3 cmH2O). (2) in unrestrained animals by barometric plethysmography using a whole-body plethysmograph (WBP) and analyzed using software of Life Science Suite P3 Analysis Modules (Gould, LDS Test and Measurement LLC, Valley View, OH, USA). Mice were placed into the main chamber of the WBP, and the baseline enhanced pause (Penh) value was determined. Then mice were first nebulized with phosphate-buffered saline (PBS), and subsequently with increasing doses (6.25~50 mg/ml) of MCh for 3 min for each nebulization, followed by readings of breathing parameters for 3 min after each nebulization to determine Penh values.
Twenty-four hours after Penh determination, these mice were anesthetized with pentobarbital (50 mg/kg, i.p.), and the lungs were lavaged via a tracheal tube with PBS (1 × 1.0 ml, 37°C). After lavage, blood was collected from the jugular vein and allowed to sit so that it would coagulate. The collected bronchoalveolar lavage fluid (BALF) and coagulated blood were respectively centrifuged at 630 g for 7 min and at 3700 g for 10 min at 4°C. After centrifugation, the BALF and serum supernatants were stored at -20°C until determination of cytokines, including interleukin (IL)-2, IL-4, IL-5, tumor necrosis factor (TNF)-α, and interferon (IFN)-γ by flow cytometric methods using mouse T helper (Th)1/Th2 cytokine CBA kits, and of total immunoglobulin (Ig)E or IgG2a using ELISA kits (Pharmingen, San Diego, CA, USA) according to the respective recommendations of the manufacturers. OVA-specific IgE was measured as described previously. Wells were coated with 100 μl of OVA (20 μg/ml) instead of the capture antibody. Levels are expressed in arbitrary units, where 1 arbitrary unit equals the optical density of the sample divided by the optical density of unchallenged mouse serum or BALF (standard). […] The number of inflammatory cells was counted using a hemocytometer (Hausser Scientific, Horsham, PA, USA). […]

PDE4 = experiment: Inhibition of PDE4 activity, two-step procedure and Lineweaver-Burk analysis; type: biochemical, guinea pig
Method: Activities of PDE1~5 in the homogenate of guinea pig lungs or hearts were measured by a two-step procedure according to the previous method, using cAMP with [^3H]-cAMP or cGMP with [^3H]-cGMP as substrates. […] The reagents and homogenate were mixed on ice, and the reaction was initiated by transferring the mixture to a water bath at 37°C. Following a 30-min incubation, the reaction was stopped by transferring the reaction vessel to a bath of boiling water for 3 min. After cooling on ice, 20 μl of a 1 mg/ml solution of Crotalus atrox snake venom was added to the reaction mixture, and the mixture was incubated at 37°C for 10 min. Unreacted [^3H]-cAMP or [^3H]-cGMP was removed by the addition of 500 μl of a 1-in-1 Tris-HCl (40 mM) buffer suspension of Dowex resin (1 × 8-200) with incubation on ice for 30 min. Each tube was then centrifuged at 3700 g for 2 min, and 150 μl of the supernatant was removed for liquid scintillation counting. […] The total protein in each fraction used was assayed according to a previous method. PDE activities are reported as nmol/mg/min.

COc1cc(O)c2c(c1)O[C@H](c1ccc(OC)c(OC)c1)CC2=O [HDME, hesperetin-7,3'-O-dimethylether]
effect on OVA-specific IgE level in the BALF [1]: dose-dependently and significantly suppressed | effect on OVA-specific IgE level in the serum [1]: dose-dependently and significantly suppressed | effect on total IgE level in the BALF [1]: dose-dependently and significantly suppressed | effect on total IgE level in the serum [1]: dose-dependently and significantly suppressed | effect on total IgG2a level in the serum [1]: dose-dependently and significantly enhanced | mode of PDE4 inhibition (PDE4; Lineweaver-Burk analysis, inhibitor 1~10 μM): competitively inhibited | Ki (PDE4; Lineweaver-Burk analysis, inhibitor 1~10 μM, substrate cAMP, read-out: dissociation constant for inhibitory binding (Ki), PDE4): 2100 ± 1300 nM | IC50 (PDE4; homogenate of guinea pig lungs or hearts): 3000 ± 900 nM

— article PMC3225327 (Journal of Biomedical Science, 2011)
